{"source": "patent US20260183223A1", "about": "“A PERSONAL CARE COMPOSITION” (Conopco, Inc., d/b/a UNILEVER, priority 2022, published 2026)", "system": "collagen type III alpha I chain (COL3A1) gene", "assay": "Gene expression test: COL3A1 by RT-PCR in normal human dermal fibroblasts", "format": "cell-based", "details": "normal human dermal fibroblasts (NHDF), 48 hours incubation with actives in medium; normalized to ACTB; fold change relative to blank control; actives in wt % of medium", "experimental": "The normal human dermal fibroblasts (NHDF, Biocell, Xi′an, China, Cat: Fb20081902) were incubated in medium together with or without actives for 48 hours. After incubation, the total RNA for each […] was extracted using RNAex Pro reagent (Accurate Biotechnology, Cat: AG21102) according to manufacturer's protocol.\nThe extracted RNA was quantified using Nanodrop 2000 spectrometer (Thermo Fisher Scientific, Waltham, MA, US) and reverse transcribed to generate the template cDNA using the Evo M-MLV RT Premix for qPCR (Accurate Biotechnology, Cat: AG11706) according to manufacturer's protocol. Amplification of the gene encoding collagen type III alpha I chain (COL3A1) gene was performed with RT-PCR reagent (SYBR® Green Premix Pro Taq HS qPCR Kit, Accurate Biotechnology, Cat: AG11701) on the ABI Vii 7 Real-Time PCR Systems (Applied Biosystems, Thermo fisher scientific, Carlsbad, CA, USA). The beta-actin (ACTB) gene was selected as the housekeeping gene and all data on relative expression of the target genes was normalized to ACTB gene. The fold changes in expression were calculated relative to the blank control (medium having no active)."}
{"substance": "Lysine carboxymethyl cysteinate", "values": [{"measurement": "Fold change of expression of COL3A1", "value": 1.1}]}
